Holding throughout (assay type): functional
In test [1] the test system is Escherichia coli. Put plainly: Antimicrobial activity against Escherichia coli ATCC 8739 at 100 ug/well after 24 hrs at 37 degC by agar diffusion assay. To be noted: ATCC 8739, 24 h, read-out: DIZ. In general terms: A growth-free zone around the sample is the usual read-out of agar diffusion tests.
Test [2] deals with Staphylococcus aureus. Put plainly: Antimicrobial activity against Staphylococcus aureus ATCC 6538 at 100 ug/well after 24 hrs at 37 degC by agar diffusion assay. To be noted: ATCC 6538, 24 h, read-out: DIZ.
Test [3] deals with Candida albicans. Put plainly: Antimicrobial activity against Candida albicans ATCC 66029 at 100 ug/well after 24 hrs at 30 degC by agar diffusion assay. To be noted: ATCC 66029, 24 h, read-out: DIZ.

Consider `CN1C(=N)N=C(Nc2nc(Cc3ccc4c(c3)OCO4)cn2C)C1=O` [CLATHRIDIMINE], for which the zone of inhibition at 100 µg/disc came out at 15 mm in test [1], 0 mm in test [2] and 24 mm in test [3].
The corresponding values for `CN1C(=O)N=C(Nc2nc(Cc3ccc4c(c3)OCO4)cn2C)C1=O` [CLATHRIDINE] are 0 mm, 0 mm and 18 mm.
For the molecule `CCC(C)n1ncn(-c2ccc(N3CCN(c4ccc(OCC5COC(Cn6cncn6)(c6ccc(Cl)cc6Cl)O5)cc4)CC3)cc2)c1=O` (centres undefined) [ITRACONAZOLE], the zone of inhibition at 100 µg/disc in test [3] turned out to be 21 mm.
With `NC[C@H]1O[C@H](O[C@H]2[C@H](O)[C@@H](O[C@H]3O[C@H](CO)[C@@H](O)[C@H](N)[C@H]3O)[C@H](N)C[C@@H]2N)[C@H](O)[C@@H](O)[C@@H]1O` [KANAMYCIN], the zone of inhibition at 100 µg/disc in test [1] is 38 mm; in test [2], 37 mm.

Values taken from ChEMBL document CHEMBL1177750, “Cellular localization of clathridimine, an antimicrobial 2-aminoimidazole alkaloid produced by the Mediterranean calcareous sponge Clathrina clathrus” (2010).
